Laboratory results as given in patent US8562586B2, “Devices and systems for local delivery of inotropic agents to the epicardium” (Massachusetts Institute of Technology, priority 2008, dated 2013).
Blank lines part the entries; values can stand above or below the compound they belong to.

What was measured:
Sprague Dawley rat = test: Hemodynamic and contractile indices in anesthetized rat, epicardial alginate patch vs IV infusion; format: in vivo; details: for systemic vascular resistance: FIG. 5
Protocol: A Sprague Dawley rat was anesthetized with pentobarbital and catheters were placed in the right internal jugular vein and right femoral artery for continuous pressure measurement and IV access. An arteriotomy in the right carotid artery allowed passage of a Millar (Houston, Tex.) conductance pressure-volume catheter across the aortic valve and into the left ventricle. This catheter allows measurement of indices of myocardial contractile function. A tracheotomy was performed and the animal ventilated prior to sternotomy and chest retraction.
A pericardial drug releasing platform was made from a calcium crosslinked alginate disk (6.5 mm diameter) and placed on top of the left ventricle. Dobutamine was then applied to the drug release platform for pericardial inotropic treatments. […]

Hannaford swine = test: Hemodynamic measurements in anesthetized swine, epicardial patch vs pericardial catheter vs IV; format: in vivo
Protocol: Hannaford swine (15-25 weeks old, 45-60 kg) were fasted overnight but given full access to water. Telazol (2 mg/kg IM at a ratio of zolazepam:tiletamine of 1:1) was given IM for sedation. Anesthesia was induced with inhaled isoflurane 2% prior to tracheal intubation (9.0 cuffed). A 22 gauge peripheral IV was inserted into an ear vein for drug administration and volume resuscitation (Ringer's lactate 4 ml/kg/hr). Anesthesia was maintained during surgical preparation with isoflurane 2% in oxygen. Respiratory rate was be fixed to 10 breaths per minute and the tidal volume adjusted between 6 and 10 ml/kg to maintain expired end-tidal carbon dioxide between 35 and 40 mmHg. Inhaled isoflurane was discontinued after surgical preparation, and balanced total intravenous anesthesia was initiated with pentobarbital (10 mg/kg/hr) and pancuronium (0.5 mcg/kg/hr) prior to experimentation.
Vascular access introducer sheaths (7 FR) were placed in a femoral vein, the right internal jugular vein and both femoral arteries using a Seldinger technique under ultrasound guidance. A balloon tipped pulmonary artery catheter was inserted through the right internal jugular venous sheath and into the pulmonary artery to allow measurement of central venous pressure (CVP), pulmonary artery pressures, and thermodilution cardiac output. Heparin 5000 units was given to keep activated clotting time above 250 seconds. A pig-tail Millar conductance catheter was advanced retrograde across the aortic valve from the right femoral arterial sheath, and allows instantaneous recordings of the pressure and volume within the left ventricle. Following midline sternotomy the pericardium was retracted. Excess Ringer's lactate solution was given to replace blood losses and maintain CVP greater than 8 mm Hg. Continuous hemodynamic measurements were taken including heart rate (HR), mean arterial pressure (MAP), central venous pressure (CVP), contractility (max dP/dt), systemic vascular resistance (SVR), stroke volume (SV), cardiac output (CO) and stroke work (SW).
A pericardial drug releasing platform was constructed from 2 calcium crosslinked alginate disks which were sealed around the edges with GluStitch and formed a bladder for pericardial drug. A catheter was placed into the bladder formed by the two disks and allowed continuous infusion of inotropic drug into the pericardial fluid. This device spread drug over the surface of the heart at a controllable rate of delivery. In another experiment, dobutamine was introduced into the pericardial sac through a catheter without the use of the patch.
In yet another experiment, dobutamine was introduced intravenously.

[1] = Plasma dobutamine levels in arterial blood samples of swine; format: in vivo; details: FIG. 10
Source text: Arterial blood samples were taken for measurement of plasma dobutamine levels.

[2] = Drug levels within the myocardium, tissue core from under the device, swine; format: in vivo; details: patch release compared with IV infusion at the same dosage, all tissue depths, FIG. 11
Source text: The heart was arrested with a large potassium IV bolus and removed. A core of tissue from under the device was taken for measurement of drug levels within the myocardium.

[3] = intravenous infusion systems; cited from earlier work
[4] = patch delivery, PV loop, FIG. 4
[5] = patch release 1 mcg/kg/min compared with IV infusion at the same dosage, FIG. 3
[6] = patch release compared with intravenous infusion, FIG. 6

systemic vascular resistance (Sprague Dawley rat; intravenous infusion 1 mcg/kg/min): excessively decreases
systemic vascular resistance (Sprague Dawley rat; patch release 1 mcg/kg/min): only minimal effect
systemic vascular resistance (Hannaford swine; patch release, FIG. 8): without significantly reducing
plasma concentration ([1]; intravenous infusion compared with patch release): substantially higher
plasma drug levels ([1]; pericardial (patch) delivery compared with IV delivery): lower
myocardial dobutamine concentration [2]: orders of magnitude higher
SMILES: CC(CCc1ccc(O)cc1)NCCc1ccc(O)c(O)c1 (centres unmarked) [dobutamine]
cardiac work efficiency (Sprague Dawley rat; patch 1 mcg/kg/min compared with IV infusion at the same dosage, FIG. 4): more efficient cardiac work
ventricular stroke volume (Sprague Dawley rat; patch 1 mcg/kg/min compared with IV infusion at the same dosage, pressure volume loops, FIG. 4): greater ventricular stroke volume
LV pressure during ejection (Sprague Dawley rat; [4]): no increase
diastolic filling (Sprague Dawley rat; [4]): minimal change
end-systolic volume (Sprague Dawley rat; [4]): marked reduction
myocardial stroke work (SW) (Sprague Dawley rat; patch delivery, area inside PV loop, FIG. 4): minimal increase
contractility of myocardial tissue (max dP/dt) (Sprague Dawley rat; [5]): greater increase in contractility
duration of the increase in contractility (Sprague Dawley rat; [5]): sustained for a longer period of time
increase in contractility relative to dose (Sprague Dawley rat; [6]): larger increase in contractility with a smaller dose
potency and effect on contractility (Sprague Dawley rat; [6]): more potent and efficacious
time response of increasing contractility (Hannaford swine; after pericardial application, FIG. 8): very rapid
stroke work per stroke volume (Hannaford swine; patch 0.5 mcg/kg/min compared with IV infusion at the same dosage, FIG. 9): less
myocardial contractility, dose response (Hannaford swine; patch release compared with release via catheter in the pericardial sac, FIG. 7): greater increase
cardiac output (Hannaford swine; patch release, FIG. 8): increased
contractility (Hannaford swine; patch release, FIG. 8): increased
dosage typically required for therapeutic effect on contractility [3]: at least 2 mcg/kg/min

SMILES: C[C@@H]1CC(=O)NN=C1c1ccc(NN=C(C#N)C#N)cc1 [levosimendan]
dosage typically required for therapeutic effect on contractility [3]: ≥ 0.1 µg/kg/min
